Source: patent US9598349B2, “Quinone based nitric oxide donating compounds for ophthalmic use” (NICOX SCIENCE IRELAND, priority 2013, dated 2017)
Read-outs that look alike come from different tables or passages of the source.

Assays:
[1] = test system: lipidic peroxidation of membrane lipids in rat hepatic microsomes; test: In vitro antioxidant activity (TBARS test); format: biochemical; settings: read-out: Antioxidant activity IC50 μM (CL 95%)
Protocol: The antioxidant properties of compound (1) (example 1), its precursors (3-methyl-3-(2,4,5-trimethyl-3,6-dioxocyclohexa-1,4-dien-1-yl)butanoic acid, described in Example 1 Step 2 (Intermediate 2) and reference antioxidant compounds were assessed after NADPH-induced lipidic peroxidation of membrane lipids in rat hepatic microsomes using the detection of 2-thiobarbituric acid reactive substances (TBARS) by visible spectroscopy.
Hepatic microsomal membranes from male Wistar rats (200-250 g) were prepared by differential centrifugation (8000 g, 20 min; 120000 g, 1 h) in a HEPES/sucrose buffer (10 mM, 250 mM, pH 7.4) and stored at −80° C. Incubation was performed at 37° C. in a Tris-HCl/KCl (100 mM/150 mM, pH 7.4) containing microsomal membranes (2 mg prot/mL), sodium ascorbate (100 μM), and DMSO solutions of the tested compounds.
Lipid peroxidation was initiated by adding ADP-FeCl3 and NADPH (Method A) or 2.5 μM FeSO4 (Method B) (as described by Boschi D. et al., J. Med. Chem. 2006, 49:2886-2897). Aliquots were taken from the incubation mixture at 5, 15, and 30 min and treated with trichloroacetic acid (TCA) 10% w/v.
Lipid peroxidation was assessed by spectrophotometric (543 nm) determination of the TBARS consisting mainly of malondialdehyde (MDA). TBARS concentrations (expressed in nmol/mg protein) were obtained by interpolation with a MDA standard curve. The antioxidant activity of tested compounds was evaluated as the percent inhibition of TBARS production with respect to control samples, using the values obtained after 30 min of incubation. IC50 values were calculated by nonlinear regression analysis.

[2] = test system: hypertonic saline-induced IOP increase; test: IOP lowering activity in hypertonic saline-induced IOP increase in rabbits, two concentrations (Example 16); format: in vivo, New Zealand White rabbits; settings: for IOP change (mmHg): versus vehicle and versus basal IOP
Protocol: The present study evaluated the intraocular pressure lowering effect of single applications of two different concentrations (1% and 0.3%) of compound (1) in rabbits with experimental increase in IOP.
(§1) Adults male New Zealand White rabbits weighting 1.8-2.0 Kg were used in the experiments.
The transient increase in IOP was induced by the injection of 0.1 ml of hypertonic saline solution (5%) into the vitreous bilaterally (Krauss et al., 2011, Orihashi et al., 2005).
IOP was measured using a Tono-Pen XL prior to hypertonic saline injection (basal) and at 30, 60, 120 and 240 min thereafter. Vehicle (5% cremophor-EL; 0.3% DMSO; 0.2 mg/ml Benzalkonium chloride in PBS pH 6.0) or compound was instilled as eye drops immediately after hypertonic saline injection. Eyes were randomly assigned to different treatment groups. Vehicle and compound were directly instilled into the conjunctiva pocket at the desired doses. One drop of 0.4% oxybuprocaine hydrochloride (Novesine, Sandoz) was instilled in each eye immediately before each set of pressure measurements.
Results are reported in Table 3 and they are expressed as IOP change (at 60 and 120 minutes following topical administration) versus vehicle and versus IOP at basal before hypertonic saline injection.

[3] = test system: hypertonic saline-induced IOP increase; test: IOP lowering activity in hypertonic saline-induced IOP increase in rabbits (Example 11); format: in vivo, New Zealand White rabbits
Protocol: The Intraocular pressure (IOP) lowering activity of compound (1) (Example 1) was assessed in an animal model of elevated IOP.
as §1
(§2) Animals were anesthetized using 20 mg/ml/kg of sodium pentobarbital. The increase in IOP was induced by the injection of 0.1 ml of hypertonic saline solution (5%) into the vitreous bilaterally (Krauss et al., 2011, Orihashi et al., 2005).
IOP was measured using a Tono-Pen XL prior to hypertonic saline injection (basal) and at 30, 60, 90, 120, 240 and 360 min thereafter. Vehicle (5% cremophor-EL; 0.3% DMSO; 0.2 mg/ml Benzalkonium chloride (bac) in PBS pH 6.0,) or compound of the invention were instilled as eye drops immediately after hypertonic saline injection. Eyes were randomly assigned to different treatment groups. Vehicle or compounds of the invention were directly instilled into the conjunctiva pocket at the desired doses. One drop of 0.2% oxybuprocaine hydrochloride (Novesine, Sandoz) diluted 1:1 with saline was instilled in each eye immediately before each set of pressure measurements.
Results are reported in Table 2 in which the ocular hypotensive activity of compound (1) is expressed as mean average of IOP measurements at 60 and 120 minutes following topical administration.

[4] = test system: hypertonic saline-induced IOP increase; test: IOP lowering activity in hypertonic saline-induced IOP increase in rabbits, versus ISMN (Example 17); format: in vivo, New Zealand White rabbits; settings: for IOP change (mmHg): dose 1%, versus vehicle and versus basal IOP
Protocol: The present study evaluated the intraocular pressure lowering effect of single application of compound (15) (Example 12) and of ISMN (isosorbide-5-mononitrate) used as reference compound, in an animal model of elevated IOP.
as §1, §2
IOP was measured using a Tono-Pen XL prior to hypertonic saline injection (basal) and at 30, 60, 90, 120, 240 and 360 min thereafter. Vehicle (5% cremophor-EL; 0.3% DMSO; 0.2 mg/ml Benzalkonium chloride in PBS pH 6.0,) or tested compound was instilled as eye drops immediately after hypertonic saline injection. Eyes were randomly assigned to different treatment groups. Vehicle or compounds were directly instilled into the conjunctiva pocket at the desired doses. One drop of 0.2% oxybuprocaine hydrochloride (Novesine, Sandoz) diluted 1:1 with saline was instilled in each eye immediately before each set of pressure measurements.
Results are reported in Table 4 and they are expressed as IOP change (at 30 and 60 minutes following topical administration) versus vehicle and versus IOP at basal before hypertonic saline injection.

[5] = test system: lipidic peroxidation of membrane lipids in rat hepatic microsomes; settings: Method B; values from Chegaev et al. (footnotes b, c); read-out: Antioxidant activity IC50 μM (CL 95%); cited from earlier work
[6] = Method A: lipid peroxidation induced by ADP-FeCl3 and NADPH, inhibition of TBARS production after 30 min incubation at 37° C.

Question: With O=C(O)/C=C/c1ccc(O)c(O)c1 [Caffeic acid, reference compound] as the compound, how does the IC50 ([1]; Method B: lipid peroxidation induced by FeSO4 and ascorbic acid, inhibition of TBARS production after 30 min incubation at 37° C.) read?
Answer: 33 µM

Question: Which “IOP change (mmHg)” value ([2]; dose 0.3%, 60 minutes) does the source give for CC1=C(C)C(=O)C(C(C)(C)CC(=O)OCCCCO[N+](=O)[O-])=C(C)C1=O [Compound (1), 4-(nitrooxy)butyl 3-methyl-3-(2,4,5-trimethyl-3,6-dioxocyclohexa-1,4-dienyl)butanoate] here?
Answer: −5.5 ± 3.1 mmHg

Question: And the “IOP change (mmHg)” value ([2]; dose 0.3%, 120 minutes)?
Answer: −5.7 ± 2.1 mmHg

Question: And the “IOP change (mmHg)” value ([2]; dose 1%, 60 minutes)?
Answer: −9.1 ± 3.4 mmHg

Question: What about the “IOP change (mmHg)” value ([2]; dose 1%, 120 minutes) of the same compound?
Answer: −9.5 ± 2.2 mmHg

Question: And the “IOP reduction (in words)” value ([2]; single application, both doses (1% and 0.3%))?
Answer: significant IOP reduction

Question: And the IC50 [1, 6]?
Answer: 28 µM

Question: What about the “IOP (mmHg)” value ([3]; 60 minutes following topical administration (eye drops)) of the same compound?
Answer: 29 ± 7.8 mmHg

Question: And the “IOP (mmHg)” value ([3]; 120 minutes following topical administration (eye drops))?
Answer: 18.9 ± 4.1 mmHg

Question: Which “IOP change (mmHg)” value ([4]; 30 minutes) does the source give for CC1=C(C)C(=O)C(C(C)(C)CC(=O)OCCCC[C@@H](CO[N+](=O)[O-])O[N+](=O)[O-])=C(C)C1=O [Compound (15), (S)-5,6-bis(nitrooxy)hexyl 3-methyl-3-(2,4,5-trimethyl-3,6-dioxocyclohexa-1,4-dienyl)butanoate] here?
Answer: −6.5 ± 2.6 mmHg

Question: And the “IOP change (mmHg)” value ([4]; 60 minutes)?
Answer: −4.9 ± 2.4 mmHg

Question: What about the “IOP reduction compared to ISMN (in words)” value ([4]; single application, 1%) of the same compound?
Answer: significantly higher IOP reduction as compared to ISMN treated group

Question: Which IC50 [5] does the source give for CC1=NN(c2ccccc2)C(=O)C1 [Edavarone] here?
Answer: 17 µM

Question: With COc1cc(/C=C/C(=O)O)ccc1O [Ferulic acid, reference compound] as the compound, how does the IC50 ([1]; Method B, footnote a: tested at 1 mM concentration) read?
Answer: 50.5 ± 0.4 µM

Question: What does the source list for O=[N+]([O-])O[C@@H]1CO[C@H]2[C@@H]1OC[C@@H]2O [ISMN, isosorbide-5-mononitrate, reference compound]?
Answer: IOP change (mmHg) ([4]; 30 minutes): −2.6 ± 3.5 mmHg; IOP change (mmHg) ([4]; 60 minutes): −0.7 ± 2.9 mmHg

Question: For CC1=C(C)C(=O)C(C(C)(C)CC(=O)O)=C(C)C1=O [Intermediate 2, 3-methyl-3-(2,4,5-trimethyl-3,6-dioxocyclohexa-1,4-dien-1-yl)butanoic acid], which IC50 [1, 6] is on record?
Answer: 157 µM

Question: Which IC50 [5] does the source give for COc1ccc2[nH]cc(CCNC(C)=O)c2c1 [Melatonin] here?
Answer: 476 µM
